Assay results as given in the supplement of paper PMC10307832.

Key:
Experiment in all cases: relative viability (nuclei count vs DMSO), 5 days (fraction); higher = more cells survive
BEN = tested on: BEN
Outline: (§1)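 Medians of duplicate plates are given as relative viability. That measure is the nuclei count in treated wells divided by the count in vehicle wells. Counts were taken on 4× images of lung cancer cell lines in 1536-well plates, 5 days after pin-tool dosing the day after seeding with one drug alone or a fixed anchor-drug dose plus five library-drug doses (not always all listed) in √10 steps.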

CAL-12T = tested on: CAL-12T
Outline: as §1

EKVX = tested on: EKVX
Outline: as §1

HCC-15 = tested on: HCC-15
Outline: as §1

HCC-366 = tested on: HCC-366
Outline: as §1

LCLC-103H = tested on: LCLC-103H
Outline: as §1

LOU-NH91 = tested on: LOU-NH91
Outline: as §1

NCI-H1355 = tested on: NCI-H1355
Outline: as §1

NCI-H1395 = tested on: NCI-H1395
Outline: as §1

NCI-H1437 = tested on: NCI-H1437
Outline: as §1

NCI-H1563 = tested on: NCI-H1563
Outline: as §1

NCI-H1650 = tested on: NCI-H1650
Outline: as §1

NCI-H1651 = tested on: NCI-H1651
Outline: as §1

NCI-H1734 = tested on: NCI-H1734
Outline: as §1

NCI-H1755 = tested on: NCI-H1755
Outline: as §1

NCI-H1975 = tested on: NCI-H1975
Outline: as §1

NCI-H2023 = tested on: NCI-H2023
Outline: as §1

NCI-H2085 = tested on: NCI-H2085
Outline: as §1

NCI-H2342 = tested on: NCI-H2342
Outline: as §1

NCI-H358 = tested on: NCI-H358
Outline: as §1

NCI-H441 = tested on: NCI-H441
Outline: as §1

NCI-H460 = tested on: NCI-H460
Outline: as §1

NCI-H838 = tested on: NCI-H838
Outline: as §1

## COc1cc(N2CCC(C(N)=O)CC2)ccc1Nc1nc(N)c(Cl)c(Nc2ccccc2S(=O)(=O)C(C)C)n1 [HG-5-88-01] + Cc1nc(Nc2ncc(C(=O)Nc3c(C)cccc3Cl)s2)cc(N2CCN(CCO)CC2)n1 [Dasatinib] (partner 0.075 µM)
BEN; first compound 0.04 µM
  relative viability: 0.227
BEN; first compound 0.1265 µM
  relative viability: 0.337
BEN; first compound 0.4 µM
  relative viability: 0.291
BEN; first compound 1.265 µM
  relative viability: 0.319
BEN; first compound 4 µM
  relative viability: 0.26
CAL-12T; first compound 0.04 µM
  relative viability: 0.382
CAL-12T; first compound 0.1265 µM
  relative viability: 0.36
CAL-12T; first compound 0.4 µM
  relative viability: 0.154
CAL-12T; first compound 1.265 µM
  relative viability: 0.0794
CAL-12T; first compound 4 µM
  relative viability: 0.0951
EKVX; first compound 0.04 µM
  relative viability: 0.479
EKVX; first compound 0.1265 µM
  relative viability: 0.563
EKVX; first compound 0.4 µM
  relative viability: 0.435
EKVX; first compound 4 µM
  relative viability: 0.273
HCC-15; first compound 0.04 µM
  relative viability: 0.669
HCC-15; first compound 0.1265 µM
  relative viability: 0.59
HCC-15; first compound 0.4 µM
  relative viability: 0.416
HCC-15; first compound 1.265 µM
  relative viability: 0.397
HCC-15; first compound 4 µM
  relative viability: 0.347
HCC-366; first compound 0.04 µM
  relative viability: 0.65
HCC-366; first compound 0.1265 µM
  relative viability: 0.677
HCC-366; first compound 0.4 µM
  relative viability: 0.514
HCC-366; first compound 1.265 µM
  relative viability: 0.691
HCC-366; first compound 4 µM
  relative viability: 0.3
LCLC-103H; first compound 0.04 µM
  relative viability: 0.522
LCLC-103H; first compound 0.1265 µM
  relative viability: 0.464
LCLC-103H; first compound 0.4 µM
  relative viability: 0.418
LCLC-103H; first compound 1.265 µM
  relative viability: 0.373
LCLC-103H; first compound 4 µM
  relative viability: 0.341
LOU-NH91; first compound 0.04 µM
  relative viability: 0.57
LOU-NH91; first compound 0.1265 µM
  relative viability: 0.524
LOU-NH91; first compound 0.4 µM
  relative viability: 0.493
LOU-NH91; first compound 1.265 µM
  relative viability: 0.321
LOU-NH91; first compound 4 µM
  relative viability: 0.243
NCI-H1355; first compound 0.04 µM
  relative viability: 0.675
NCI-H1355; first compound 0.1265 µM
  relative viability: 0.77
NCI-H1355; first compound 0.4 µM
  relative viability: 0.597
NCI-H1355; first compound 1.265 µM
  relative viability: 0.574
NCI-H1355; first compound 4 µM
  relative viability: 0.388
NCI-H1395; first compound 0.04 µM
  relative viability: 0.416
NCI-H1395; first compound 0.1265 µM
  relative viability: 0.371
NCI-H1395; first compound 0.4 µM
  relative viability: 0.393
NCI-H1395; first compound 1.265 µM
  relative viability: 0.394
NCI-H1395; first compound 4 µM
  relative viability: 0.36
NCI-H1437; first compound 0.04 µM
  relative viability: 0.411
NCI-H1437; first compound 0.1265 µM
  relative viability: 0.306
NCI-H1437; first compound 0.4 µM
  relative viability: 0.231
NCI-H1437; first compound 1.265 µM
  relative viability: 0.234
NCI-H1437; first compound 4 µM
  relative viability: 0.267
NCI-H1563; first compound 0.04 µM
  relative viability: 0.453
NCI-H1563; first compound 0.1265 µM
  relative viability: 0.445
NCI-H1563; first compound 0.4 µM
  relative viability: 0.436
NCI-H1563; first compound 1.265 µM
  relative viability: 0.367
NCI-H1563; first compound 4 µM
  relative viability: 0.381
NCI-H1650; first compound 0.04 µM
  relative viability: 0.324
NCI-H1650; first compound 0.1265 µM
  relative viability: 0.327
NCI-H1650; first compound 0.4 µM
  relative viability: 0.278
NCI-H1650; first compound 1.265 µM
  relative viability: 0.232
NCI-H1650; first compound 4 µM
  relative viability: 0.221
NCI-H1651; first compound 0.04 µM
  relative viability: 0.368
NCI-H1651; first compound 0.1265 µM
  relative viability: 0.619
NCI-H1651; first compound 0.4 µM
  relative viability: 0.375
NCI-H1651; first compound 1.265 µM
  relative viability: 0.249
NCI-H1651; first compound 4 µM
  relative viability: 0.246
NCI-H1734; first compound 0.04 µM
  relative viability: 0.412
NCI-H1734; first compound 0.1265 µM
  relative viability: 0.432
NCI-H1734; first compound 0.4 µM
  relative viability: 0.326
NCI-H1734; first compound 1.265 µM
  relative viability: 0.358
NCI-H1734; first compound 4 µM
  relative viability: 0.284
NCI-H1755; first compound 0.04 µM
  relative viability: 0.459
NCI-H1755; first compound 0.1265 µM
  relative viability: 0.514
NCI-H1755; first compound 0.4 µM
  relative viability: 0.369
NCI-H1755; first compound 1.265 µM
  relative viability: 0.29
NCI-H1755; first compound 4 µM
  relative viability: 0.15
NCI-H1975; first compound 0.04 µM
  relative viability: 0.358
NCI-H1975; first compound 0.1265 µM
  relative viability: 0.352
NCI-H1975; first compound 0.4 µM
  relative viability: 0.284
NCI-H1975; first compound 1.265 µM
  relative viability: 0.217
NCI-H1975; first compound 4 µM
  relative viability: 0.145
NCI-H2023; first compound 0.04 µM
  relative viability: 0.646
NCI-H2023; first compound 0.1265 µM
  relative viability: 0.515
NCI-H2023; first compound 0.4 µM
  relative viability: 0.318
NCI-H2023; first compound 1.265 µM
  relative viability: 0.196
NCI-H2023; first compound 4 µM
  relative viability: 0.207
NCI-H2085; first compound 0.04 µM
  relative viability: 0.296
NCI-H2085; first compound 0.1265 µM
  relative viability: 0.242
NCI-H2085; first compound 0.4 µM
  relative viability: 0.24
NCI-H2085; first compound 1.265 µM
  relative viability: 0.186
NCI-H2085; first compound 4 µM
  relative viability: 0.163
NCI-H2342; first compound 0.04 µM
  relative viability: 0.281
NCI-H2342; first compound 0.1265 µM
  relative viability: 0.336
NCI-H2342; first compound 0.4 µM
  relative viability: 0.308
NCI-H2342; first compound 1.265 µM
  relative viability: 0.307
NCI-H2342; first compound 4 µM
  relative viability: 0.268
NCI-H358; first compound 0.04 µM
  relative viability: 0.142
NCI-H358; first compound 0.1265 µM
  relative viability: 0.153
NCI-H358; first compound 0.4 µM
  relative viability: 0.164
NCI-H358; first compound 1.265 µM
  relative viability: 0.11
NCI-H358; first compound 4 µM
  relative viability: 0.138
NCI-H441; first compound 0.04 µM
  relative viability: 0.601
NCI-H441; first compound 0.1265 µM
  relative viability: 0.625
NCI-H441; first compound 0.4 µM
  relative viability: 0.31
NCI-H441; first compound 1.265 µM
  relative viability: 0.314
NCI-H441; first compound 4 µM
  relative viability: 0.231
NCI-H460; first compound 0.04 µM
  relative viability: 0.481
NCI-H460; first compound 0.1265 µM
  relative viability: 0.56
NCI-H460; first compound 0.4 µM
  relative viability: 0.316
NCI-H460; first compound 1.265 µM
  relative viability: 0.255
NCI-H460; first compound 4 µM
  relative viability: 0.0831
NCI-H838; first compound 0.04 µM
  relative viability: 0.266
NCI-H838; first compound 0.1265 µM
  relative viability: 0.279
NCI-H838; first compound 0.4 µM
  relative viability: 0.233
NCI-H838; first compound 1.265 µM
  relative viability: 0.251
NCI-H838; first compound 4 µM
  relative viability: 0.181
